In assay [1] the test system is rat diaphragm fiber bundles. The assay can be described thus: Force-frequency relationship (isometric force) of isolated diaphragm fiber bundles. It is filed as cell-based. The settings on record: for contractile increases (force-frequency relationship): same dose range as NIZ (100 uM-1 mM). On the procedure: FIGS. 3A and 3B. Skeletal muscle contractile properties are related to NOS activity Muscles (Soleus, n=6; DPH, diaphragm fiber bundles, n=7; EDL, extensor digitorum longus, n=5) were surgically isolated from deeply anesthetized rats, mounted in vitro at optimal length, and incubated at 37° C. in oxygenated buffered Krebs-Ringer solution containing d-tubocurarine 25 uM. Direct field stimulation (0.2 ms pulses, 250 ms train duration, supramaximal voltage) was used to evoke twitch (1 Hz) and tetanic (15, 30, 40, 50, 80, 120, 200 Hz) contractions. Isometric force was measured. Upper panel (A) depicts the average forces (+/-SE) developed at frequencies of 1-200 Hz. Tetanic stimulation at any submaximal frequency (15-150 Hz) evoked different amounts of force production among the muscles (Soleus>DPH>EDL). A vertical dotted line identifies the frequency (40 Hz) used in comparisons of NOS activity.
FIGS. 4A and 4B. Endogenous NO depresses contractile function. Fiber bundles were isolated from rat diaphragm and studied using methods described in FIG. 3. Panel A depicts the average forces (+SE) developed at stimulus frequencies of 1-120 Hz by muscles incubated in Krebs-Ringer solution containing either 7-nitroindazole (NIZ; n=3 per frequency) or aminoguanidine (AMG, n=3 per frequency). Forces are expressed as percentages of maximal tetanic force (PO).

Assay [2] has as its system other NOS isoforms. Particulars: Misko et al. 1993; cited from earlier work.
In assay [3] the test system is rat diaphragm fiber bundles. In words: Force developed at 40 Hz (submaximal tetanic contraction) by diaphragm fiber bundles. The class given is cell-based. The procedure: FIGS. 3A and 3B. […] Direct field stimulation (0.2 ms pulses, 250 ms train duration, supramaximal voltage) was used to evoke twitch (1 Hz) and tetanic (15, 30, 40, 50, 80, 120, 200 Hz) contractions. Isometric force was measured. Upper panel (A) depicts the average forces (+/-SE) developed at frequencies of 1-200 Hz. […] A vertical dotted line identifies the frequency (40 Hz) used in comparisons of NOS activity.
FIGS. 4A and 4B. […] Fiber bundles were isolated from rat diaphragm and studied using methods described in FIG. 3. Panel A depicts the average forces (+SE) developed at stimulus frequencies of 1-120 Hz by muscles incubated in Krebs-Ringer solution containing either 7-nitroindazole (NIZ; n=3 per frequency) or aminoguanidine (AMG, n=3 per frequency). Forces are expressed as percentages of maximal tetanic force (PO).
Fiber bundles were isolated from rat diaphragm and studied using methods described in the description of FIG. 3. Data are mean forces (±SE) developed at 40 Hz by fiber bundles (n=5 or 6/group) treated with NLA (transcribed from FIG. 4B), NLA plus dipyramidole (DPM; phosphodiesterase inhibitor) 10 uM, 8-bromo-cGMP (BGMP; exogenous CGMP analogue), or DPM plus BGMP. Forces are expressed as percentages of the average force developed at 40 Hz by time- and stimulus-matched control muscle (shown±SE by horizontal dashed lines).

The subject of assay [4] is b-NOS. Particulars: Moore et al.; cited from earlier work.

As for `N=C(N)NN` [AMG, aminoguanidine], the “contractile increases (force-frequency relationship)” value in assay [1] is listed as “Similar, albeit smaller, contractile increases”. The NOS isoform selectivity result in assay [2] is “relative selectivity towards other NOS isoforms”.
On to `Nc1nc2c(nc(Br)n2[C@@H]2O[C@@H]3COP(=O)(O)O[C@H]3[C@H]2O)c(=O)[nH]1` [BGMP, 8-bromo-cGMP], for which the “effect on contractile increases caused by NOS inhibition” value in assay [3] (40 Hz, FIG. 5) is “reversed”. Moreover, the “force developed at 40 Hz, compared with control” value in assay [3] (NLA-treated bundles, DPM 10 uM, FIG. 5, p<0.0001) is on record as “greater than control”.
With `OCCN(CCO)c1nc(N2CCCCC2)c2nc(N(CCO)CCO)nc(N3CCCCC3)c2n1` [DPM, dipyridamole], in assay [3] (40 Hz, FIG. 5), the “effect on contractile increases caused by NOS inhibition” value is listed as “reversed”.
Regarding `N=C(N)NCCC[C@H](N)C(=O)O` [L-arginine], in assay [1], the “contractile increases (force-frequency relationship)” value is reported as “not”.
In the case of `O=[N+]([O-])c1cccc2cn[nH]c12` [NIZ, 7-nitroindazole], the “effect on contractile function (force-frequency relationship)” value in assay [1] (100 uM, p<0.05) was “Significant effects”. Further, the “effect on contractile function (force-frequency curve)” value in assay [1] (1 mM, FIG. 4A) was “profoundly influenced contractile function, causing the diaphragm force-frequency curve to closely approximate that of the soleus”. For the same compound, the “shift of the diaphragm force-frequency relationship” value in assay [1] (1 mM, FIG. 4A, repeated measures ANOVA) was “shifted the diaphragm force-frequency relationship up and to the left (p<0.0001 by repeated measures ANOVA) such that it was indistinguishable from the relationship measured in untreated soleus”. Moreover, the NOS isoform specificity entry in assay [4] is “b-NOS specific inhibitor”.
On to `CC(=O)N[C@@H](CSN=O)C(=O)O` [SNAC, S-nitroso-N-acetylcysteine], for which the “contractile function with exogenous NO donor” value in assay [3] (100 uM, FIG. 4B) is reported as “depressing contractile function”. Besides, the “force developed at 40 Hz, compared with control” value in assay [3] (40 Hz, SNAC 100 uM, NP 100 uM, NLA 10 mM, FIG. 4B) is reported as “not different from control”.
With `CN(C)c1ccc2nc3ccc(=[N+](C)C)cc-3sc2c1` [methylene blue], in assay [3] (10 uM, p<0.001, data not shown), the “force production during submaximal tetanic contraction” value is reported as “increased force production”.
On to Hemoglobin, for which the “force production during submaximal tetanic contraction” value is reported as “enhances force production” in assay [3] (40 Hz, 50 uM, n=5, p=0.052) and “enhances force production” in assay [3] (40 Hz, 50-250 uM, n=10, p<0.001).

The values above are taken from US5583101A, “Use of nitrogen oxide species and adducts to inhibit skeletal muscle contraction” (Harvard College, priority 1994, dated 1996).
